Experimental data as given in US9709557B2, “Anthraquinone based near IR emitting compounds and uses thereof” (LIFE TECHNOLOGIES CORPORATION, priority 2008, dated 2017).

What was measured:
Live Jurkat cells [1] = experiment: DNA staining of live cells treated with RNase (Example 37); format: cell-based, human; conditions: 5 μM and 10 μM, 37° C. or room temperature, 30 min
Procedure: Live Jurkat cells (human T-lymphocyte) were stained with Compound 9 with and without RNase treatment to assess DNA selectivity of the compound. Live Jurkat cells were suspended at 5×10^5 cells/ml in each RPMI media with 10% FBS. The dye was added to each of one mL cell suspensions at concentrations 5 μM and 10 μM. Duplicate conditions (dye concentration and incubation temperature) were tested. RNase was added to one test and incubated along with the dye. The other test was left untreated (no RNase present). The samples were incubated at 37° C. or room temperature for 30 minutes while protected from light. Cells were run through a Becton Dickinson (BD) LSRII Flow Cytometer, as described in Example 36.

Live Jurkat cells [2] = experiment: DNA staining of live cells (diluted samples), cell cycle analysis by flow cytometry (Example 38); format: cell-based, human
Procedure: Aliquots of a compound of the invention (e.g., Compound 9 or a salt thereof) are diluted to a concentration of 5 mM in de-ionized water (DI) or in DMSO. Live Jurkat cells are suspended at 5×10^5 cells/ml in each RPMI media with 10% FBS. Compound from each solution (DI and DMSO) is added to each of one mL cell suspensions at a concentration 5 μM and then incubated at 37° C. for 30 minutes while protected from light. Cells are run through a Becton Dickinson (BD) LSRII Flow Cytometer. Forward Scatter (FS) versus Side Scatter (SS) dual parameter plot is used to gate main cell population. Fluorescence is collected using two lasers: the 488 nm excitation laser with 695/40, and 780/60 bandpass emission filter, and using the 633 nm excitation laser with 780/60, 710/50, and 660/20 bandpass emission filters. Fluorescence is also collected with the 488 nm laser and the 530/30 and 575/26 bandpass emission filters to observe for any fluorescence spillover in these detectors. Collection of at least 10,000 events is performed at a flow rate of ˜200 events/second. The data is analyzed to evaluate the ratio of G2/G1 and the % CV of G1 phase, as described herein. Compound 9 was evaluated using the described procedures and was effective as a DNA stain for use in DNA cell cycle analysis. The compound was excited by both lasers with emission in the far red and near-IR regions of the spectrum. […] Table 2 summarizes data for live Jurkat cells suspended in RPMI media+10% FBS treated with 5 μM Compound 9 (as a 5 mM DMSO or DI solution).

Live Jurkat cells [3] = experiment: Evaluation of cell health after DNA staining, ImageStream imaging flow cytometer (Example 39); format: cell-based; conditions: 5 μM, 37° C., 30 min
Description: An ImageStream multispectral imaging flow cytometer is used to evaluate the live, apoptotic and mitotic rate of cycling Jurkat cells labeled with a compound of the invention (e.g., Compound 9 or a salt thereof). The platform produces high resolution brightfield, darkfield, and fluorescence images of cells prepared in suspension. IDEA analysis software I is used to quantify morphometric and photometric parameters for each cell based on the imaged collected. This technology combines the quantitative power of large sample sizes common to flow cytometry with the high information content present in microscopic images.
Live Jurkat cells are suspended at 5×10^5 cells/ml in each RPMI media with 10% FBS. The compound (in 5 mM DMSO) is added at a concentration of 5 μM and then the cells are incubated at 37° C. for 30 minutes while protected from light before acquiring on the ImageStream cytometer using 658 nm excitation and >660 nm emission. Apoptotic, mitotic, and interphase Jurkat cells are distinguished from each other using a combination of scatter, DNA intensity, and morphology-based parameters. Apoptotic cells with high laser scatter properties are gated on the Mean Pixel SSC histogram. Low scatter apoptotic events with low DNA content or textured nuclei are identified on the dye intensity versus bright detail intensity plot. […]

Live Jurkat cells [4] = experiment: DNA staining of live cells, 15 minute incubation (Example 46); format: cell-based, human; conditions: 2.5, 5, 10 μM, 37° C., 15 min; 488 and 633 nm lasers, 695/40
Procedure: Compound 9 is diluted as a 5 mM concentration in DMSO. Live Jurkat cells are suspended at 5×10^5 cells/ml in RPMI media with 10% Fetal Bovine Serum (FBS). Compound 9 was is added to each of one mL cell suspensions at concentrations 2.5 μM, 5 μM, 10 μM and then incubated at 37° C. for 15 minutes while protected from light. Cells are run through the Becton Dickinson (BD) LSRII Flow Cytometer. Forward Scatter (FS) vs Side Scatter (SS) dual parameter plot is used to gate main cell population. Fluorescence is collected using two lasers: the 488 nm excitation laser with 695/40 bandpass emission filter, and using the 633 nm excitation laser with 695/40 bandpass emission filter. Collection of 10,000 events gated on the main population of cells was performed using a flow rate of ˜200 events/second. […] A typical DNA cell cycle histogram was generated, showing G0/G1 phase, S phase, and G2/M phase, as obtained on the live cell gate, with all concentrations of the compound.

Live Jurkat cells [5] = experiment: DNA staining of live cells, 15 minute incubation, MODFIT analysis (Example 47); format: cell-based, human; conditions: 1.25, 2.5, 5, 10 μM, 37° C. and room temperature, 15 min
Procedure: Live Jurkat cells are suspended at 5×10^5 cells/ml in RPMI media Compound 9 is added to each of one mL cell suspensions at final concentrations 1.25 μM, 2.5 μM, 5 μM, and 10 μM and then incubated at 37° C. and room temperature for 15 minutes while protected from light. Cells are run through the Becton Dickinson (BD) LSRII Flow Cytometer. Forward Scatter (FS) versus Side Scatter (SS) dual parameter plot is used to gate main cell population. Fluorescence is collected using two lasers: the 488 nm excitation laser with 695/40 bandpass emission filter, and using the 633 nm excitation laser with 695/40 bandpass emission filters, collecting 10,000 events at flow rate of ˜200 events/second. The data is further analyzed using MODFIT LT Flow Cytometry Modeling Software from Verity Software House, Inc. to look at ratio of G2/G1 and the % CV of G1 phase.

[6] = tested on: U-2 OS cells (ATCC HTB-96); experiment: Imaging of cells stained with near-IR DNA stain (Example 48); format: cell-based; conditions: 20 μM, live, fixed or simultaneously fixed cells
Procedure: Live U-2 OS cells (ATCC HTB-96) were treated with Compound 9 under various conditions and imaged with a 10×/0.3 objective on an ArrayScan VTI automated microscope platform (ThermoFisher/Cellomics). […] Such staining patterns have been routinely utilized in auto-focus and cell identification in automated microscopy. Cells were fixed with 3.7% formaldehyde (diluted from Sigma F1635) in the presence of 20 μM Compound 9 for 30 minutes at room temperature. The fixed cells were imaged and show similar prominent nuclear and dim cytosolic labeling (FIG. 4).

CN(C)CCNC(=O)CNc1ccc(O)c2c1C(=O)c1c(O)ccc(N)c1C2=O [Compound 9]
DNA selectivity, staining with and without RNase (Live Jurkat cells [1]): DNA selective
G2/G1 ratio (Live Jurkat cells [2]; 5 μM from 5 mM DI solution, 488 + 695/40): 1.89
G2/G1 ratio (Live Jurkat cells [2]; 5 μM from 5 mM DI solution, 633 + 710/50): 1.85
G2/G1 ratio (Live Jurkat cells [2]; 5 μM from 5 mM DMSO solution, 488 + 695/40): 1.88
G2/G1 ratio (Live Jurkat cells [2]; 5 μM from 5 mM DMSO solution, 633 + 710/50): 1.85
% CV of G1-phase (Live Jurkat cells [2]; 5 μM, all samples and conditions, MODFIT): < 8%
cells dead following incubation with the dye (Live Jurkat cells [3]): 7.1%
mitotic cells as share of the live cell population (Live Jurkat cells [3]): 1.9%
DNA content cell cycle staining (Live Jurkat cells [4]): demonstrated staining for DNA content cell cycle
% CV of G1-phase (Live Jurkat cells [5]): < 8%
staining pattern [6]: prominent nuclear and relatively dim cytsolic staining
